{
  "source": "ChEMBL document CHEMBL3217457",
  "about": "“Carbazolepyrrolo[2,1-c][1,4]benzodiazepine conjugates: design, synthesis, and biological evaluation” (Medchemcomm, 2011)",
  "key": {"PC-3 [1]": {"test_system": "PC-3", "experiment": "Growth inhibition of human PC3 cells", "assay_type": "functional"}, "A549": {"test_system": "A549", "experiment": "Growth inhibition of human A549 cells", "assay_type": "functional"}, "KB": {"test_system": "KB", "experiment": "Growth inhibition of human KB cells", "assay_type": "functional"}, "[2]": {"experiment": "Growth inhibition of human Gurav cells", "assay_type": "functional"}, "A2780": {"test_system": "A2780", "experiment": "Growth inhibition of human A2780 cells", "assay_type": "functional"}, "SiHa": {"test_system": "SiHa", "experiment": "Growth inhibition of human SiHa cells", "assay_type": "functional"}, "ZR-75-1": {"test_system": "ZR-75-1", "experiment": "Growth inhibition of human ZR-75-1 cells", "assay_type": "functional"}, "MCF7 [3]": {"test_system": "MCF7", "experiment": "Cytotoxicity against human MCF7 cells assessed as decrease in cell viability at 2 to 16 uM after 6 to 48 hrs by MTT assay", "assay_type": "functional, cell-based"}, "MCF7 [4]": {"test_system": "MCF7", "experiment": "Cytotoxicity against human MCF7 cells assessed as decrease in cell viability at 4 uM after 24 hrs by MTT assay", "assay_type": "functional, cell-based"}, "MCF7 [5]": {"test_system": "MCF7", "experiment": "Cytotoxicity against human MCF7 cells by ATP-dependent cell viability assay", "assay_type": "functional, cell-based"}, "MCF7 [6]": {"test_system": "MCF7", "experiment": "Cell cycle arrest in human MCF7 cells assessed as accumulation at G0 phase at 4 uM after 24 hrs by propidium iodide staining based flow cytometry (reference value: 2.77%)", "assay_type": "functional"}, "MCF7 [7]": {"test_system": "MCF7", "experiment": "Cell cycle arrest in human MCF7 cells assessed as accumulation at G1 phase at 4 uM after 24 hrs by propidium iodide staining based flow cytometry (reference value: 57.98%)", "assay_type": "functional"}, "MCF7 [8]": {"test_system": "MCF7", "experiment": "Cell cycle arrest in human MCF7 cells assessed as accumulation at S phase at 4 uM after 24 hrs by propidium iodide staining based flow cytometry (reference value: 14.30%)", "assay_type": "functional"}, "MCF7 [9]": {"test_system": "MCF7", "experiment": "Cell cycle arrest in human MCF7 cells assessed as accumulation at G2/M phase at 4 uM after 24 hrs by propidium iodide staining based flow cytometry (reference value: 24.95%)", "assay_type": "functional"}, "MCF7 [10]": {"test_system": "MCF7", "experiment": "Cell cycle arrest in human MCF7 cells assessed as accumulation at G0/G1 phase at 4 uM after 24 hrs by propidium iodide staining based flow cytometry (reference value: 60.75%)", "assay_type": "functional"}, "MCF7 [11]": {"test_system": "MCF7", "experiment": "Induction of apoptosis in human MCF7 cells assessed as Apoalert DNA fragmentation at 4 uM after 24 hrs by TUNEL assay", "assay_type": "functional, cell-based"}, "MCF7 [12]": {"test_system": "MCF7", "experiment": "Antiproliferative activity against human MCF7 cells assessed as cell proliferation at 4 uM after 24 hrs by BrdU incorporation assay (reference value: 100%)", "assay_type": "functional", "details": "MCF7, 24 h, read-out: Activity"}, "MCF7 [13]": {"test_system": "MCF7", "experiment": "Downregulation of cyclin D1 protein expression in human MCF7 cells at 2 to 4 uM after 24 hrs by Western blot analysis", "assay_type": "functional, cell-based"}, "MCF7 [14]": {"test_system": "MCF7", "experiment": "Upregulation of p53 protein expression in human MCF7 cells at 4 uM after 24 hrs by Western blot analysis", "assay_type": "functional, cell-based"}, "MCF7 [15]": {"test_system": "MCF7", "experiment": "Upregulation of Bax protein expression in human MCF7 cells at 4 uM after 24 hrs by Western blot analysis", "assay_type": "functional, cell-based"}, "MCF7 [16]": {"test_system": "MCF7", "experiment": "Downregulation of c-Jun protein expression in human MCF7 cells at 4 uM after 24 hrs by Western blot analysis", "assay_type": "functional, cell-based"}, "MCF7 [17]": {"test_system": "MCF7", "experiment": "Downregulation of Jun B protein expression in human MCF7 cells at 4 uM after 24 hrs by Western blot analysis", "assay_type": "functional, cell-based"}, "MCF7 [18]": {"test_system": "MCF7", "experiment": "Downregulation of CREB protein expression in human MCF7 cells at 4 uM after 24 hrs by Western blot analysis", "assay_type": "functional, cell-based"}, "MCF7 [19]": {"test_system": "MCF7", "experiment": "Downregulation of CDK4 protein expression in human MCF7 cells at 4 uM after 24 hrs by Western blot analysis", "assay_type": "functional, cell-based"}, "MCF7 [20]": {"test_system": "MCF7", "experiment": "Upregulation of JNK1/2 protein expression in human MCF7 cells at 4 uM after 24 hrs by Western blot analysis", "assay_type": "functional, cell-based"}, "MCF7 [21]": {"test_system": "MCF7", "experiment": "Upregulation of PARP protein expression in human MCF7 cells at 4 uM after 24 hrs by Western blot analysis", "assay_type": "functional, cell-based"}, "MCF7 [22]": {"test_system": "MCF7", "experiment": "Induction of apoptosis in human MCF7 cells assessed as procaspase-7 cleavage at 4 uM after 24 hrs by Western blot analysis", "assay_type": "functional, cell-based"}, "MCF7 [23]": {"test_system": "MCF7", "experiment": "Induction of apoptosis in human MCF7 cells assessed as pRb protein expression at 4 uM after 24 hrs by Western blot analysis", "assay_type": "functional, cell-based"}, "PC-3 [24]": {"test_system": "PC-3", "experiment": "Anticancer activity against human PC3 cells xenografted in NOD-SCID mouse assessed as decrease in tumor weight at 20 mg/kg, iv q4d on days 1, 5 and 9", "assay_type": "functional, organism-based", "set-up": "dose 20 mg/kg"}, "PC-3 [25]": {"test_system": "PC-3", "experiment": "Anticancer activity against human PC3 cells xenografted in NOD-SCID mouse assessed as decrease in tumor volume at 20 mg/kg, iv q4d on days 1, 5 and 9", "assay_type": "functional, organism-based", "set-up": "dose 20 mg/kg"}, "[26]": {"experiment": "Toxicity in iv dosed NOD-SCID mouse xenografted with human PC3 cells assessed as maximum tolerated dose administered q4d on days 1, 5 and 9", "assay_type": "organism-based, PC-3", "details": "in vivo"}, "Mus musculus [27]": {"test_system": "Mus musculus", "experiment": "Toxicity in NOD-SCID mouse xenografted with human PC3 cells assessed as weight loss at 20 mg/kg, iv q4d on days 1, 5 and 9", "assay_type": "organism-based, PC-3", "set-up": "dose 20 mg/kg, route intravenous", "details": "in vivo"}, "Mus musculus [28]": {"test_system": "Mus musculus", "experiment": "Toxicity in NOD-SCID mouse xenografted with human PC3 cells assessed as mortality at 20 mg/kg, iv q4d on days 1, 5 and 9", "assay_type": "organism-based, PC-3", "set-up": "dose 20 mg/kg, route intravenous", "details": "in vivo"}, "Calf thymus DNA": {"test_system": "Calf thymus DNA", "experiment": "Binding affinity to calf thymus DNA assessed as change in melting temperature at compound to DNA ratio of 1:5 after 18 hrs by thermal denaturation analysis", "assay_type": "nucleic-acid assay", "details": "Bos taurus"}, "HOP-62": {"test_system": "HOP-62", "experiment": "Growth inhibition of human HOP62 cells", "assay_type": "functional"}, "COLO 205": {"test_system": "COLO 205", "experiment": "Growth inhibition of human COLO205 cells", "assay_type": "functional"}, "MCF7 [29]": {"test_system": "MCF7", "experiment": "Growth inhibition of human MCF7 cells", "assay_type": "functional"}},
  "note": "Calls of active or inactive are those of the source. No cut-off for these calls is given here.",
  "data": [
    {"smiles": "COc1ccc(-c2ccc3c(c2)c2cc(-c4ccc(OC)cc4)ccc2n3CCCCN2CCN(CCCCOc3cc4c(cc3OC)C(=O)N3CCC[C@H]3C=N4)CC2)cc1", "values": [
      {"measurement": "GI50", "setting": "PC-3 [1]", "value": 10, "unit": "nM"},
      {"measurement": "GI50", "setting": "A549", "value": 90, "unit": "nM"},
      {"measurement": "GI50", "setting": "KB", "value": 100, "unit": "nM"},
      {"measurement": "GI50", "setting": "[2]", "value": 110, "unit": "nM"},
      {"measurement": "GI50", "setting": "A2780", "value": 10, "unit": "nM"},
      {"measurement": "GI50", "setting": "SiHa", "value": 110, "unit": "nM"},
      {"measurement": "GI50", "setting": "ZR-75-1", "value": 120, "unit": "nM"},
      {"measurement": "inhibition", "setting": "MCF7 [3]", "value": "Active"},
      {"measurement": "inhibition", "setting": "MCF7 [4]", "value": "Active"},
      {"measurement": "inhibition", "setting": "MCF7 [5]", "value": "Active"},
      {"measurement": "Activity", "setting": "MCF7 [6]", "value": 25.31, "unit": "%"},
      {"measurement": "Activity", "setting": "MCF7 [7]", "value": 63.03, "unit": "%"},
      {"measurement": "Activity", "setting": "MCF7 [8]", "value": 5.44, "unit": "%"},
      {"measurement": "Activity", "setting": "MCF7 [9]", "value": 6.2, "unit": "%"},
      {"measurement": "Activity", "setting": "MCF7 [10]", "value": 88.34, "unit": "%"},
      {"measurement": "Activity", "setting": "MCF7 [11]", "value": "Active"},
      {"measurement": "growth at 4 µM", "setting": "MCF7 [12]", "value": 28, "unit": "%"},
      {"measurement": "inhibition", "setting": "MCF7 [13]", "value": "Active"},
      {"measurement": "Activity", "setting": "MCF7 [14]", "value": "Active"},
      {"measurement": "Activity", "setting": "MCF7 [15]", "value": "Active"},
      {"measurement": "inhibition", "setting": "MCF7 [16]", "value": "Active"},
      {"measurement": "inhibition", "setting": "MCF7 [17]", "value": "Active"},
      {"measurement": "inhibition", "setting": "MCF7 [18]", "value": "Active"},
      {"measurement": "inhibition", "setting": "MCF7 [19]", "value": "Active"},
      {"measurement": "Activity", "setting": "MCF7 [20]", "value": "Active"},
      {"measurement": "Activity", "setting": "MCF7 [21]", "value": "Active"},
      {"measurement": "Activity", "setting": "MCF7 [22]", "value": "Active"},
      {"measurement": "Activity", "setting": "MCF7 [23]", "value": "Active"},
      {"measurement": "inhibition", "setting": "PC-3 [24]", "value": "Active"},
      {"measurement": "inhibition", "setting": "PC-3 [25]", "value": "Active"},
      {"measurement": "MTD", "setting": "[26]", "value": "< 50", "unit": "mg/kg"},
      {"measurement": "Activity", "setting": "Mus musculus [27]", "value": "Non-toxic"},
      {"measurement": "Activity", "setting": "Mus musculus [28]", "value": "Non-toxic"},
      {"measurement": "ΔTm", "setting": "Calf thymus DNA", "value": 10.2, "unit": "°C"},
      {"measurement": "GI50", "setting": "HOP-62", "value": 10, "unit": "nM"},
      {"measurement": "GI50", "setting": "COLO 205", "value": 70, "unit": "nM"},
      {"measurement": "GI50", "setting": "MCF7 [29]", "value": 10, "unit": "nM"}
    ]}
  ]
}
